Source: article PMC10031131, “Design, synthesis and evaluation of a series of potential prodrugs of a Bruton’s tyrosine kinase (BTK) inhibitor” (Frontiers in Pharmacology, 2023)
pIC50: −log10 of the molar value. Converted amounts (≈) assume the structure as drawn. Read-outs that look alike come from different tables or passages of the source.

Assays:
BTK [1] = target: T1, BTK (Homo sapiens, UniProt Q06187); settings: Figure 2; ref Kuglstatter et al., 2011; cited from earlier work
T1 construct: purchased Carna Biosciences
T1 sequence (Q06187 whole entry): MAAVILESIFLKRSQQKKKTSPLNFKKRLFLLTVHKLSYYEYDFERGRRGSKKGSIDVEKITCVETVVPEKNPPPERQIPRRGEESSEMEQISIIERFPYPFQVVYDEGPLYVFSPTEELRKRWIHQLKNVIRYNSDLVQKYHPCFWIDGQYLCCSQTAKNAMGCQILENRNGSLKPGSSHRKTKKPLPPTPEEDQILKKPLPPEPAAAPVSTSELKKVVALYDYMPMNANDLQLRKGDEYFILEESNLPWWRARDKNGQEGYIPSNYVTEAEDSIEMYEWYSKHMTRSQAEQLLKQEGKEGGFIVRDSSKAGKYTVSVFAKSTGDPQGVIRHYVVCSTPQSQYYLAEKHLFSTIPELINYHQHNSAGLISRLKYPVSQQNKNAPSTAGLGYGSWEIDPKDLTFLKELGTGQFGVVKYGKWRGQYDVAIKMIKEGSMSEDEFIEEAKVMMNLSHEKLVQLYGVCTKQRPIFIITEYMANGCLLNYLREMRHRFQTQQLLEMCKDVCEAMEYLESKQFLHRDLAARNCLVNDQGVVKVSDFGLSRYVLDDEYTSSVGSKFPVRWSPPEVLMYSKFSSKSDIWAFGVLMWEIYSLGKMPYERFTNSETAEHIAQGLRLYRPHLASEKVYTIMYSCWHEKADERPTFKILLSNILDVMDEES

[2] = set-up: method as in Li et al., 2014; settings: FaSSIF (Fasted State Simulated Intestinal Fluid, pH 6.5) medium; ref Li et al., 2014; cited from earlier work
[3] = Chemical stability in DMSO or buffer by HPLC; format: physicochemical; settings: HPLC analysis of in vitro stability after 24 h at room temperature
[4] = set-up: method as in Li et al., 2014; settings: ref Li et al., 2014; cited from earlier work
[5] = Thermodynamic solubility determination assay; format: physicochemical; settings: Britton-Robinson buffer (pH 6.5); for solubility thermodynamic: 25 °C, aqueous buffer, thermodynamic from solid, average of two measurements, read-out: S, pH 6.5 (thermodynamic solubility)
Protocol: Prior to mixing with the appropriate medium, the test chemical was accurately weighed into an appropriately sized screw-capped glass vial. The generated slurry was sonicated at room temperature for 20 min and at 50°C for 15 min, and then agitated at room temperature for at least two days before the crystallinity of the remaining solid was examined using a polarized light microscope. If crystallinity was not observed, more time for equilibration was allowed. The slurry was aliquoted into 1.5 mL centrifuge tubes on the day of analysis and centrifuged at 15,000 rpm for 20 min at 25°C. The supernatant’s concentration was determined by UV-vis (YOKE, T-U7S).

BTK^C481S = system: BTK^C481S; set-up: method as in Gui et al., 2019; settings: Figure 2; ref Gui et al., 2019; cited from earlier work
BTK [6] = target: T1, BTK; experiment: Cell-free kinase enzymology assay (HTRF KinEase); format: biochemical
Protocol: FIGURE 4 (A) Enzymatic activities of parent 4 and prodrugs 5a-c for BTK. Kinase enzymology assays were carried out in accordance with the protocols described in the HTRF KinEase assays. (B) Time-dependent plasma stability assay.
The kinase (BTK) was acquired from Carna Biosciences. Kinase acitivity assays were carried out based on Cisbio Bioassays’ HTRF® technology. At room temperature, kinase and substrate were combined with compounds in varied concentrations, followed by adding ATP to activate the enzymatic reactions. EDTA solution was added to stop the reactions after 1 h, followed by the addition of streptavidin XL665 conjugates and anti-phosphotyrosine antibodies. The mixtures were incubated for an additional 1 h at room temperature before reading on a plate reader (EnVision®, Perkin Elmer). GraphPad Prism was used to analyze the data.

[7] = Human plasma stability assay; format: in vitro ADME
Protocol: (§1) The in vitro stability in human plasma for the test compounds was investigated using procaine as the reference compound. The frozen human plasma was quickly thawed at 37°C. The spiking solution was made by combining 10 µL of a 10 mM compound stock solution with 990 µL of DMSO. The plasma and spiking solution were pre-warmed at 37°C for 5 min. Then 7 µL of the pre-warmed spiking solution was added into the 693 µL plasma evenly. The tests were carried out in duplicate in a 37°C shaking water bath. At 0, 5, 15, 30, 60, and 120 min, 100 µL samples were collected and added to a 400 µL solution containing an internal standard (IS). After quenching, the samples were vortexed for 5 min (600 rpm) and then centrifuged at 4,000 rpm for 20 min. LC-MS was used to analyze the clear supernatants. The values are the mean of two separate experiments.
as §1, with “at 37 °C.” for “at 37°C.”, “at 37 ℃” for “at 37°C”, “a 37 °C” for “a 37°C”

[8] = DMSO, read-out: DMSO (% remaining)
[9] = buffer pH 7.4, read-out: Buffer, pH 7.4 (% remaining)

Row | SMILES | remaining at 24 h [3, 8] [%] | solubility thermodynamic [5] [µM] | pIC50 (BTK [6]) | remaining at 24 h [3, 9] [%] | fold lower inhibitory potential for BTK compared to parent 4 (BTK [6]) [fold] | further results
1 | Cc1ccc(NC(=O)/C=C/c2ccccc2)cc1C(=O)Nc1cnc2[nH]c(-c3ccccc3)nc2c1 [Compound 1] | – | – | – | – | – | pIC50 (BTK [1]): 5.25
2 | C=CC(=O)Nc1cccc(Nc2ncc(NC(=O)c3cc(NC(=O)c4cccc(C(F)(F)F)c4)ccc3C)cn2)c1 [Compound 2, reference compound] | 100 | 2 (≈ 1.12 µg/mL) | – | – | – | solubility in FaSSIF [2]: 7.02 µM (≈ 3.93 µg/mL); bioavailability (F%) [4]: 0.9%
3 | Cc1cc(Nc2ncc3c(n2)N(C)CN(c2cc(NC(=O)c4cccc(C(F)(F)F)c4)ccc2C)C3)n(C)n1 [Compound 3] | – | – | – | – | – | pIC50 (BTK^C481S): 7.96
4 | CC(=O)Nc1cc(Nc2ncc(NC(=O)c3cc(NC(=O)c4cccc(C(F)(F)F)c4)ccc3C)cn2)ccc1O [Compound 4] | 100 | 6.6 (≈ 3.73 µg/mL) | 7.85 | 100 | – | –
5 | CCN(CC)CCOC(=O)c1ccc(N)cc1 [Procaine, reference compound] | – | – | – | – | – | Analyte Peak Area ([7]; human plasma, 37°C, time 15 min, duplicates): BLOD; Analyte Peak Area ([7]; human plasma, 37°C, time 30 min, duplicates): BLOD; Analyte Peak Area ([7]; human plasma, 37°C, time 60 min, duplicates): BLOD; Analyte Peak Area ([7]; human plasma, 37°C, time 120 min, duplicates): BLOD

More lines, main results first:

Row | remaining at 24 h [3, 8] [%] | solubility thermodynamic [5] [µM] | pIC50 (BTK [6]) | remaining at 24 h [3, 9] [%] | fold lower inhibitory potential for BTK compared to parent 4 (BTK [6]) [fold] | SMILES | further results
6 | 100 | 88 (≈ 62 µg/mL) | 6.87 | 99 | 10 | CC(=O)Nc1cc(Nc2ncc(NC(=O)c3cc(NC(=O)c4cccc(C(F)(F)F)c4)ccc3C)cn2)ccc1OC(=O)CN1CCN(C)CC1 [Compound 5a] | Analyte Peak Area [7]: BLOD; time for conversion to parent 4 in human plasma ([7]; human, 1 µM): less than 2 h
7 | 100 | 22 (≈ 13.7 µg/mL) | 7.04 | 98 | 7 | CC(=O)Nc1cc(Nc2ncc(NC(=O)c3cc(NC(=O)c4cccc(C(F)(F)F)c4)ccc3C)cn2)ccc1OC(=O)CN [Compound 5b, 2-Acetamido-4-((5-(2-methyl-5-(3-(trifluoromethyl)benzamido)benzamido)pyrimidin-2-yl)amino)phenyl glycinate] | increase of solubility compared to parent 4 [5]: thrice
8 | 100 | 4.6 (≈ 2.99 µg/mL) | 6.91 | – | 9 | CC(=O)Nc1cc(Nc2ncc(NC(=O)c3cc(NC(=O)c4cccc(C(F)(F)F)c4)ccc3C)cn2)ccc1OC(=O)CN(C)C [Compound 5c, 2-Acetamido-4-((5-(2-methyl-5-(3-(trifluoromethyl)benzamido)benzamido)pyrimidin-2-yl)amino)phenyl dimethylglycinate] | –
